In the supplement of paper PMC10307832:

What was measured:
Test in all cases: relative viability (nuclei count vs DMSO), 5 days (fraction); higher = more cells survive
ChaGo-K-1 = test system: ChaGo-K-1
Procedure, shortened: (§1)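 Medians of duplicate plates are given as relative viability. That measure is the nuclei count in treated wells divided by the count in vehicle wells. Counts were taken on 4× images of lung cancer cell lines in 1536-well plates, 5 days after pin-tool dosing the day after seeding with one drug alone or a fixed anchor-drug dose plus five library-drug doses (not always all listed) in √10 steps.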

EKVX = test system: EKVX
Procedure, shortened: as §1

EMC-BAC-2 = test system: EMC-BAC-2
Procedure, shortened: as §1

EPLC-272H = test system: EPLC-272H
Procedure, shortened: as §1

HCC-78 = test system: HCC-78
Procedure, shortened: as §1

HCC-827 = test system: HCC-827
Procedure, shortened: as §1

LCLC-103H = test system: LCLC-103H
Procedure, shortened: as §1

LK-2 = test system: LK-2
Procedure, shortened: as §1

LU99A = test system: LU99A
Procedure, shortened: as §1

LXF-289 = test system: LXF-289
Procedure, shortened: as §1

NCI-H1563 = test system: NCI-H1563
Procedure, shortened: as §1

NCI-H1666 = test system: NCI-H1666
Procedure, shortened: as §1

NCI-H1975 = test system: NCI-H1975
Procedure, shortened: as §1

NCI-H2126 = test system: NCI-H2126
Procedure, shortened: as §1

NCI-H23 = test system: NCI-H23
Procedure, shortened: as §1

NCI-H2405 = test system: NCI-H2405
Procedure, shortened: as §1

NCI-H322M = test system: NCI-H322M
Procedure, shortened: as §1

PC-14 = test system: PC-14
Procedure, shortened: as §1

RERF-LC-KJ = test system: RERF-LC-KJ
Procedure, shortened: as §1

SK-LU-1 = test system: SK-LU-1
Procedure, shortened: as §1

SW 1573 = test system: SW 1573
Procedure, shortened: as §1

O=c1cc(-c2cccc3c2Sc2ccccc2S3)oc(N2CCOCC2)c1 + CS(=O)(=O)N1CCN(Cc2cc3nc(-c4cccc5[nH]ncc45)nc(N4CCOCC4)c3s2)CC1 [Pictilisib] (partner 1 µM)
relative viability (ChaGo-K-1; first compound 0.08 µM): 0.649 | relative viability (ChaGo-K-1; first compound 0.253 µM): 0.624 | relative viability (ChaGo-K-1; first compound 0.8 µM): 0.777 | relative viability (ChaGo-K-1; first compound 8 µM): 1.12 | relative viability (EKVX; first compound 0.08 µM): 0.418 | relative viability (EKVX; first compound 0.253 µM): 0.521 | relative viability (EKVX; first compound 0.8 µM): 0.286 | relative viability (EKVX; first compound 2.53 µM): 0.439 | relative viability (EKVX; first compound 8 µM): 0.47 | relative viability (EMC-BAC-2; first compound 0.08 µM): 0.535 | relative viability (EMC-BAC-2; first compound 0.253 µM): 0.582 | relative viability (EMC-BAC-2; first compound 0.8 µM): 0.58 | relative viability (EMC-BAC-2; first compound 2.53 µM): 0.548 | relative viability (EMC-BAC-2; first compound 8 µM): 0.538 | relative viability (EPLC-272H; first compound 0.08 µM): 0.321 | relative viability (EPLC-272H; first compound 0.253 µM): 0.334 | relative viability (EPLC-272H; first compound 0.8 µM): 0.29 | relative viability (EPLC-272H; first compound 2.53 µM): 0.289 | relative viability (EPLC-272H; first compound 8 µM): 0.327 | relative viability (HCC-78; first compound 0.08 µM): 0.182 | relative viability (HCC-78; first compound 0.253 µM): 0.199 | relative viability (HCC-78; first compound 0.8 µM): 0.207 | relative viability (HCC-78; first compound 2.53 µM): 0.196 | relative viability (HCC-78; first compound 8 µM): 0.255 | relative viability (HCC-827; first compound 0.08 µM): 0.945 | relative viability (HCC-827; first compound 0.253 µM): 1.13 | relative viability (HCC-827; first compound 0.8 µM): 1.12 | relative viability (HCC-827; first compound 2.53 µM): 0.743 | relative viability (HCC-827; first compound 8 µM): 1.1 | relative viability (LCLC-103H; first compound 0.08 µM): 0.63 | relative viability (LCLC-103H; first compound 0.253 µM): 0.531 | relative viability (LCLC-103H; first compound 0.8 µM): 0.505 | relative viability (LCLC-103H; first compound 2.53 µM): 0.489 | relative viability (LCLC-103H; first compound 8 µM): 0.616 | relative viability (LK-2; first compound 0.08 µM): 0.608 | relative viability (LK-2; first compound 0.253 µM): 0.51 | relative viability (LK-2; first compound 0.8 µM): 0.708 | relative viability (LK-2; first compound 2.53 µM): 0.503 | relative viability (LK-2; first compound 8 µM): 0.725 | relative viability (LU99A; first compound 0.08 µM): 0.294 | relative viability (LU99A; first compound 0.253 µM): 0.341 | relative viability (LU99A; first compound 0.8 µM): 0.378 | relative viability (LU99A; first compound 2.53 µM): 0.332 | relative viability (LU99A; first compound 8 µM): 0.418 | relative viability (LXF-289; first compound 0.08 µM): 0.777 | relative viability (LXF-289; first compound 0.253 µM): 0.791 | relative viability (LXF-289; first compound 0.8 µM): 0.896 | relative viability (LXF-289; first compound 2.53 µM): 0.747 | relative viability (LXF-289; first compound 8 µM): 0.849 | relative viability (NCI-H1563; first compound 0.08 µM): 0.649 | relative viability (NCI-H1563; first compound 0.253 µM): 0.64 | relative viability (NCI-H1563; first compound 0.8 µM): 0.633 | relative viability (NCI-H1563; first compound 2.53 µM): 0.738 | relative viability (NCI-H1563; first compound 8 µM): 0.661 | relative viability (NCI-H1666; first compound 0.08 µM): 0.404 | relative viability (NCI-H1666; first compound 0.253 µM): 0.416 | relative viability (NCI-H1666; first compound 0.8 µM): 0.323 | relative viability (NCI-H1666; first compound 2.53 µM): 0.411 | relative viability (NCI-H1666; first compound 8 µM): 0.396 | relative viability (NCI-H1975; first compound 0.08 µM): 0.276 | relative viability (NCI-H1975; first compound 0.253 µM): 0.311 | relative viability (NCI-H1975; first compound 0.8 µM): 0.236 | relative viability (NCI-H1975; first compound 2.53 µM): 0.272 | relative viability (NCI-H1975; first compound 8 µM): 0.269 | relative viability (NCI-H2126; first compound 0.08 µM): 0.454 | relative viability (NCI-H2126; first compound 0.253 µM): 0.509 | relative viability (NCI-H2126; first compound 0.8 µM): 0.412 | relative viability (NCI-H2126; first compound 2.53 µM): 0.452 | relative viability (NCI-H2126; first compound 8 µM): 0.56 | relative viability (NCI-H23; first compound 0.08 µM): 0.559 | relative viability (NCI-H23; first compound 0.253 µM): 0.523 | relative viability (NCI-H23; first compound 0.8 µM): 0.47 | relative viability (NCI-H23; first compound 2.53 µM): 0.4 | relative viability (NCI-H23; first compound 8 µM): 0.457 | relative viability (NCI-H2405; first compound 0.08 µM): 0.454 | relative viability (NCI-H2405; first compound 0.253 µM): 0.386 | relative viability (NCI-H2405; first compound 0.8 µM): 0.333 | relative viability (NCI-H2405; first compound 2.53 µM): 0.491 | relative viability (NCI-H2405; first compound 8 µM): 0.492 | relative viability (NCI-H322M; first compound 0.08 µM): 0.512 | relative viability (NCI-H322M; first compound 0.253 µM): 0.553 | relative viability (NCI-H322M; first compound 0.8 µM): 0.419 | relative viability (NCI-H322M; first compound 2.53 µM): 0.585 | relative viability (NCI-H322M; first compound 8 µM): 0.471 | relative viability (PC-14; first compound 0.08 µM): 0.48 | relative viability (PC-14; first compound 0.253 µM): 0.977 | relative viability (PC-14; first compound 0.8 µM): 0.755 | relative viability (PC-14; first compound 2.53 µM): 0.748 | relative viability (PC-14; first compound 8 µM): 0.668 | relative viability (RERF-LC-KJ; first compound 0.08 µM): 0.43 | relative viability (RERF-LC-KJ; first compound 0.253 µM): 0.608 | relative viability (RERF-LC-KJ; first compound 0.8 µM): 0.622 | relative viability (RERF-LC-KJ; first compound 2.53 µM): 0.571 | relative viability (RERF-LC-KJ; first compound 8 µM): 0.521 | relative viability (SK-LU-1; first compound 0.08 µM): 0.616 | relative viability (SK-LU-1; first compound 0.253 µM): 0.515 | relative viability (SK-LU-1; first compound 0.8 µM): 0.594 | relative viability (SK-LU-1; first compound 2.53 µM): 0.541 | relative viability (SK-LU-1; first compound 8 µM): 0.596 | relative viability (SW 1573; first compound 0.08 µM): 0.539 | relative viability (SW 1573; first compound 0.253 µM): 0.554 | relative viability (SW 1573; first compound 0.8 µM): 0.586 | relative viability (SW 1573; first compound 2.53 µM): 0.556 | relative viability (SW 1573; first compound 8 µM): 0.597
